Ten compounds from ChEMBL document CHEMBL1146332, “Parallel solid synthesis of inhibitors of the essential cell division FtsZ enzyme as a new potential class of antibacterials” (Bioorg Med Chem, 2007) can be followed below.

Experiment [1] concerns Escherichia coli. Kind of experiment: Antibacterial activity against Escherichia coli ATCC 25922 by disc diffusion method. Type of experiment: functional, organism-based.
Experiment [2] deals with Staphylococcus aureus. Description: Antibacterial activity against Staphylococcus aureus ATCC 25923 at 20 g/L by disc diffusion method. The class given is functional. As to conditions: for zone of inhibition at 20000 µg/mL: read-out: IZ.
The target in experiment [3] is T1, Cell division protein FtsZ (Pseudomonas aeruginosa (strain ATCC 15692 / PAO1 / 1C / PRS 101 / LMG12228), UniProt P47204).
T1 sequence (P47204 whole entry): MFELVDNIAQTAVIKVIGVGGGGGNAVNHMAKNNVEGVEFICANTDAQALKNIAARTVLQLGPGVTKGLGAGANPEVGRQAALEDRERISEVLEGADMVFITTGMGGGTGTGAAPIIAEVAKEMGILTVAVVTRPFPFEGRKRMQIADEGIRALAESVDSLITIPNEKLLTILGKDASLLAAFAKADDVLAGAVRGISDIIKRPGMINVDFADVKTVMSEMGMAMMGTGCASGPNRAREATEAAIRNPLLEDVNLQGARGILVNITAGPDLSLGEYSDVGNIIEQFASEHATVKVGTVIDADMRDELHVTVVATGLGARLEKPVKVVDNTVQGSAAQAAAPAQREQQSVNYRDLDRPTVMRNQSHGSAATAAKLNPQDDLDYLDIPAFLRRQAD
Kind of experiment: Inhibition of Pseudomonas aeruginosa FtsZ GTPase activity by spectrophotometric assay.

SMILES strings stand for the structures. pIC50: −log10 of the molar value. Active and inactive are the calls of the source. The rule behind the calls is not given here.

Consider `CCCNC(=O)[C@H](Cn1cnc2c(Cl)nc(N)nc21)NC(=O)N[C@H](C)c1ccccc1`, for which the result in experiment [1] was inactive. Moreover, in experiment [2], the zone of inhibition at 20000 µg/mL was 11 mm. In experiment [3], the pIC50 is 2.74.
The corresponding values for `CCCNC(=O)[C@H](Cn1cnc2c(Cl)nc(N)nc21)NS(=O)(=O)c1ccc(C)cc1` are “inactive”, 11 mm and 2.59.
The like results for `Nc1nc(Cl)c2ncn(C[C@H](NC(=O)Nc3ccccc3)C(=O)O)c2n1` were, in that order, “inactive”, 10 mm and 3.35.
Consider `C=CCNC(=O)[C@H](Cn1cnc2c(Cl)nc(N)nc21)NS(=O)(=O)c1ccc(C)cc1`, for which the result in experiment [1] and in experiment [2] was inactive. Further, the negative-log IC50 (pIC50) in experiment [3] is 2.77.
On to `C=CCNC(=O)[C@H](Cn1cnc2c(Cl)nc(N)nc21)NS(C)(=O)=O`, for which the result in experiment [1] was inactive. Besides, the zone of inhibition at 20000 µg/mL in experiment [2] came to 28 mm. The compound further gave a negative-log IC50 (pIC50) in experiment [3] of 3.22.
`NC[C@H]1O[C@H](O[C@H]2[C@H](O)[C@@H](O[C@H]3O[C@H](CO)[C@@H](O)[C@H](N)[C@H]3O)[C@H](N)C[C@@H]2N)[C@H](O)[C@@H](O)[C@@H]1O`: in experiment [1], the result was inactive.
`Nc1nc(Cl)c2ncn(C[C@H](NS(=O)(=O)c3ccccc3)C(=O)O)c2n1`: the outcome in experiment [1] and in experiment [2] was inactive. The compound further had a negative logarithm of the IC50 (pIC50) in experiment [3] of 2.92.
For the compound `C=CCNC(=O)[C@H](Cn1cnc2c(Cl)nc(N)nc21)NC(=O)N[C@H](C)c1ccccc1`, the outcome in experiment [1] and in experiment [2] was inactive. The pIC50 in experiment [3] is 2.74.
On to `Nc1nc(Cl)c2ncn(C[C@H](NC(=O)Cc3ccccc3)C(=O)O)c2n1`, for which the result in experiment [1] and in experiment [2] was inactive. Besides, the negative-log IC50 (pIC50) in experiment [3] was 2.70.
`CCCNC(=O)[C@H](Cn1cnc2c(Cl)nc(N)nc21)NS(C)(=O)=O`: in experiment [1], the outcome was inactive. The zone of inhibition at 20000 µg/mL in experiment [2] turned out to be 15 mm. The same compound had a pIC50 in experiment [3] of 3.15.
